Results: patent publication US20040248275A1, “Engineered bacterial aggregates” (priority 2003, published 2004)

Tests used:
Assay in all cases: Lectin aggregation of bacterial cells (microtitre wells, semi-quantitative score)
Type in all cases: cell-based
Parameters in all cases: key: Where the addition of lectins did not cause the aggregation of cells, a score of “0” was assigned; Lectins that caused cellular-aggregation to give small flocs in a turbid suspension were given a score of “+”; A score of “++” was given to lectin-cell aggregate mixes that resulted in large aggregates seen by eye in a turbid suspension; Lectins that caused cellular aggregation to give easily visible aggregates in a clear solution were given a score of “+++”
Conditions in all cases: cells O.D. 0.5 at 650 nm
C. aquaticum = tested on: C. aquaticum
Protocol: (§1) Assay approach: Six lectins were chosen to discover their suitability for the aggregation of different species of bacteria. These were Concanavalin A, Lentil lectin, Pseudomonas aeruginosa lectin, peanut lectin, Limulus polyphemus lectin and wheat germ lectin.
(§2) The ability of the lectins to aggregate bacterial cells was studied by mixing cells at an O.D. of 0.5 at 650 nm with different lectins at different concentrations. The extent of aggregation was determined by a semi-quantitative approach. […] Lectins that caused cellular-aggregation to give small flocs in a turbid suspension were given a score of “+”. […] Lectins that caused cellular aggregation to give easily visible aggregates in a clear solution were given a score of “+++”.

C. freundii = tested on: C. freundii
Protocol: as §1, §2

E. asburiae = tested on: E. asburiae
Protocol: as §1, §2

E. brevis = tested on: E. brevis
Protocol: as §1, §2

E. coli S17-1 (K12) = tested on: E. coli S17-1 (K12)
Protocol: as §1, §2

E. faecalis = tested on: E. faecalis
Protocol: as §1, §2

K. pneumoniae = tested on: K. pneumoniae
Protocol: as §1, §2

Pseudomonas sp. 2881 = tested on: Pseudomonas sp. 2881
Protocol: as §1, §2

S. haemolyticus = tested on: S. haemolyticus
Protocol: as §1, §2

S. paucimobilis = tested on: S. paucimobilis
Protocol: as §1, §2

S. plymuthica = tested on: S. plymuthica
Protocol: as §1, §2

Molecule: Concanavalin A
- extent of aggregation (score) (C. aquaticum; lectin 1 × 10^−1 mg/mL): ++
- extent of aggregation (score) (C. aquaticum; lectin 1 × 10^−2 mg/mL): ++
- extent of aggregation (score) (C. aquaticum; lectin 1 × 10^−3 mg/mL): 0
- extent of aggregation (score) (C. freundii; lectin 1 × 10^−1 mg/mL): +++
- extent of aggregation (score) (C. freundii; lectin 1 × 10^−2 mg/mL): +
- extent of aggregation (score) (C. freundii; lectin 1 × 10^−3 mg/mL): +
- extent of aggregation (score) (E. asburiae; lectin 1 × 10^−1 mg/mL): +
- extent of aggregation (score) (E. asburiae; lectin 1 × 10^−2 mg/mL): +
- extent of aggregation (score) (E. asburiae; lectin 1 × 10^−3 mg/mL): 0
- extent of aggregation (score) (E. brevis; lectin 1 × 10^−1 mg/mL): +
- extent of aggregation (score) (E. brevis; lectin 1 × 10^−2 mg/mL): +
- extent of aggregation (score) (E. brevis; lectin 1 × 10^−3 mg/mL): 0
- extent of aggregation (score) (E. coli S17-1 (K12); lectin 1 × 10^−1 mg/mL): +++
- extent of aggregation (score) (E. coli S17-1 (K12); lectin 1 × 10^−2 mg/mL): +++
- extent of aggregation (score) (E. coli S17-1 (K12); lectin 1 × 10^−3 mg/mL): +
- extent of aggregation (score) (E. faecalis; lectin 1 × 10^−1 mg/mL): 0
- extent of aggregation (score) (E. faecalis; lectin 1 × 10^−2 mg/mL): +
- extent of aggregation (score) (E. faecalis; lectin 1 × 10^−3 mg/mL): ++
- extent of aggregation (score) (K. pneumoniae; lectin 1 × 10^−1 mg/mL): +++
- extent of aggregation (score) (K. pneumoniae; lectin 1 × 10^−2 mg/mL): +
- extent of aggregation (score) (K. pneumoniae; lectin 1 × 10^−3 mg/mL): +
- extent of aggregation (score) (Pseudomonas sp. 2881; lectin 1 × 10^−1 mg/mL): +++
- extent of aggregation (score) (Pseudomonas sp. 2881; lectin 1 × 10^−2 mg/mL): ++
- extent of aggregation (score) (Pseudomonas sp. 2881; lectin 1 × 10^−3 mg/mL): ++
- extent of aggregation (score) (S. haemolyticus; lectin 1 × 10^−1 mg/mL): +++
- extent of aggregation (score) (S. haemolyticus; lectin 1 × 10^−2 mg/mL): ++
- extent of aggregation (score) (S. haemolyticus; lectin 1 × 10^−3 mg/mL): +
- extent of aggregation (score) (S. paucimobilis; lectin 1 × 10^−1 mg/mL): +
- extent of aggregation (score) (S. paucimobilis; lectin 1 × 10^−2 mg/mL): ++
- extent of aggregation (score) (S. paucimobilis; lectin 1 × 10^−3 mg/mL): 0
- extent of aggregation (score) (S. plymuthica; lectin 1 × 10^−1 mg/mL): +
- extent of aggregation (score) (S. plymuthica; lectin 1 × 10^−2 mg/mL): +
- extent of aggregation (score) (S. plymuthica; lectin 1 × 10^−3 mg/mL): +

B1: Lentil lectin (protein, UniProt P02870 31-210; P02870 218-269, looked up)
Lectin beta chain: TETTSFSITKFSPDQKNLIFQGDGYTTKGKLTLTKAVKSTVGRALYSTPIHIWDRDTGNVANFVTSFTFVIDAPSSYNVADEFTFFIAPVDTKPQTGGGYLGVFNSKEYDKTSQTVAVEFDTFYNAAWDPSNKERHIGIDVNSIKSVNTKSWNLQNGERANVVIAFNAATNVLTVTLTYP
Lectin alpha chain: VTSYTLNEVVPLKDVVPEWVRIGFSATTGAEFAAHEVHSWSFHSELGGTSSS
- extent of aggregation (score) (C. aquaticum; lectin 1 × 10^−1 mg/mL): ++
- extent of aggregation (score) (C. aquaticum; lectin 1 × 10^−2 mg/mL): +
- extent of aggregation (score) (C. aquaticum; lectin 1 × 10^−3 mg/mL): 0
- extent of aggregation (score) (C. freundii; lectin 1 × 10^−1 mg/mL): +++
- extent of aggregation (score) (C. freundii; lectin 1 × 10^−2 mg/mL): +
- extent of aggregation (score) (C. freundii; lectin 1 × 10^−3 mg/mL): +
- extent of aggregation (score) (E. asburiae; lectin 1 × 10^−1 mg/mL): 0
- extent of aggregation (score) (E. asburiae; lectin 1 × 10^−2 mg/mL): 0
- extent of aggregation (score) (E. asburiae; lectin 1 × 10^−3 mg/mL): 0
- extent of aggregation (score) (E. brevis; lectin 1 × 10^−1 mg/mL): +
- extent of aggregation (score) (E. brevis; lectin 1 × 10^−2 mg/mL): 0
- extent of aggregation (score) (E. brevis; lectin 1 × 10^−3 mg/mL): 0
- extent of aggregation (score) (E. coli S17-1 (K12); lectin 1 × 10^−1 mg/mL): +++
- extent of aggregation (score) (E. coli S17-1 (K12); lectin 1 × 10^−2 mg/mL): ++
- extent of aggregation (score) (E. coli S17-1 (K12); lectin 1 × 10^−3 mg/mL): +
- extent of aggregation (score) (E. faecalis; lectin 1 × 10^−1 mg/mL): +
- extent of aggregation (score) (E. faecalis; lectin 1 × 10^−2 mg/mL): +
- extent of aggregation (score) (E. faecalis; lectin 1 × 10^−3 mg/mL): ++
- extent of aggregation (score) (K. pneumoniae; lectin 1 × 10^−1 mg/mL): ++
- extent of aggregation (score) (K. pneumoniae; lectin 1 × 10^−2 mg/mL): +
- extent of aggregation (score) (K. pneumoniae; lectin 1 × 10^−3 mg/mL): +
- extent of aggregation (score) (Pseudomonas sp. 2881; lectin 1 × 10^−1 mg/mL): +++
- extent of aggregation (score) (Pseudomonas sp. 2881; lectin 1 × 10^−2 mg/mL): ++
- extent of aggregation (score) (Pseudomonas sp. 2881; lectin 1 × 10^−3 mg/mL): +
- extent of aggregation (score) (S. haemolyticus; lectin 1 × 10^−1 mg/mL): +++
- extent of aggregation (score) (S. haemolyticus; lectin 1 × 10^−2 mg/mL): +
- extent of aggregation (score) (S. haemolyticus; lectin 1 × 10^−3 mg/mL): +
- extent of aggregation (score) (S. paucimobilis; lectin 1 × 10^−1 mg/mL): +
- extent of aggregation (score) (S. paucimobilis; lectin 1 × 10^−2 mg/mL): 0
- extent of aggregation (score) (S. paucimobilis; lectin 1 × 10^−3 mg/mL): 0
- extent of aggregation (score) (S. plymuthica; lectin 1 × 10^−1 mg/mL): +
- extent of aggregation (score) (S. plymuthica; lectin 1 × 10^−2 mg/mL): +
- extent of aggregation (score) (S. plymuthica; lectin 1 × 10^−3 mg/mL): +
